Data published in ChEMBL document CHEMBL1201862, “PubChem BioAssay data set” (2004).
Active and inactive are the calls of the source.

Assays:
[1] = target: T1, Streptokinase A (Streptococcus pyogenes serotype M1, UniProt P10520); assay: viability-normalized secreted streptokinase activity reduction – plasminogen activation absorbance, OD405, dose response (AID 1914); type: functional, Streptococcus pyogenes M1 GAS;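 also: secreted streptokinase activity via plasminogen activation per viability signal from cell pellet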
T1 sequence (P10520 whole entry): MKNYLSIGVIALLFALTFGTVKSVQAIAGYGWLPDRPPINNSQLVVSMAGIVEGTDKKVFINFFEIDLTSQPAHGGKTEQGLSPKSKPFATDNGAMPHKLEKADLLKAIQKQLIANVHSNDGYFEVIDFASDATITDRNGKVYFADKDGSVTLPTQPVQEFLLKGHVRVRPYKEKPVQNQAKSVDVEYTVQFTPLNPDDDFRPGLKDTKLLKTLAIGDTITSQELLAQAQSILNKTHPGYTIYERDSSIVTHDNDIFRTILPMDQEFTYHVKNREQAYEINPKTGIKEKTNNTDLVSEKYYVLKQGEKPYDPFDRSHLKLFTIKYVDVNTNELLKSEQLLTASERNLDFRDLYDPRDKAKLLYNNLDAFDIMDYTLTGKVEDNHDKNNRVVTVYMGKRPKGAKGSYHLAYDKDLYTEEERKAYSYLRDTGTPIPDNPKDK

[2] = NIH3T3 cell viability loss – ATP luminescence, mouse fibroblasts, counter-screen, dose response (AID 2010); type: functional, cell-based;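 also: cells exposed to compound for about 90 hours before reading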
[3] = Trypanosoma cruzi growth suppression in host cells – NIH3T3 host cells, beta-gal luminescence, confirmation (AID 2044); type: functional, cell-based;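 also: intracellular parasites grown in NIH/3T3 mouse fibroblasts as host cells; luminescent beta-galactosidase reporter signal from transgenic T. cruzi replicating inside host cells; inhibitors lower the luminescence signal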
[4] = test system: Streptococcus; assay: GAS UMAA2166 growth inhibition – luminescence, BacTiterGlo, counter-screen for streptokinase expression inhibitor project, dose response (AID 1915); type: functional, organism-based;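 also: potency for reduction of bacterial viability or growth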
[5] = viability loss in HepG2 hepatoma cells – cell-based, ATP luminescence, cherry-pick, activator set 2, cytotoxicity control, dose response (AID 1053143); type: functional
[6] = test system: Streptococcus sp. 'group A'; assay: Streptococcus pyogenes SK(-)GAS viability under kanamycin – luminescence, BacTiterGlo, confirmation, counter-screen for streptokinase expression inhibitor project, dose response (AID 1900); type: functional, organism-based
[7] = target: T2, Histone-lysine N-methyltransferase NSD2 (Homo sapiens, UniProt O96028); type: biochemical
T2 sequence (O96028 whole entry): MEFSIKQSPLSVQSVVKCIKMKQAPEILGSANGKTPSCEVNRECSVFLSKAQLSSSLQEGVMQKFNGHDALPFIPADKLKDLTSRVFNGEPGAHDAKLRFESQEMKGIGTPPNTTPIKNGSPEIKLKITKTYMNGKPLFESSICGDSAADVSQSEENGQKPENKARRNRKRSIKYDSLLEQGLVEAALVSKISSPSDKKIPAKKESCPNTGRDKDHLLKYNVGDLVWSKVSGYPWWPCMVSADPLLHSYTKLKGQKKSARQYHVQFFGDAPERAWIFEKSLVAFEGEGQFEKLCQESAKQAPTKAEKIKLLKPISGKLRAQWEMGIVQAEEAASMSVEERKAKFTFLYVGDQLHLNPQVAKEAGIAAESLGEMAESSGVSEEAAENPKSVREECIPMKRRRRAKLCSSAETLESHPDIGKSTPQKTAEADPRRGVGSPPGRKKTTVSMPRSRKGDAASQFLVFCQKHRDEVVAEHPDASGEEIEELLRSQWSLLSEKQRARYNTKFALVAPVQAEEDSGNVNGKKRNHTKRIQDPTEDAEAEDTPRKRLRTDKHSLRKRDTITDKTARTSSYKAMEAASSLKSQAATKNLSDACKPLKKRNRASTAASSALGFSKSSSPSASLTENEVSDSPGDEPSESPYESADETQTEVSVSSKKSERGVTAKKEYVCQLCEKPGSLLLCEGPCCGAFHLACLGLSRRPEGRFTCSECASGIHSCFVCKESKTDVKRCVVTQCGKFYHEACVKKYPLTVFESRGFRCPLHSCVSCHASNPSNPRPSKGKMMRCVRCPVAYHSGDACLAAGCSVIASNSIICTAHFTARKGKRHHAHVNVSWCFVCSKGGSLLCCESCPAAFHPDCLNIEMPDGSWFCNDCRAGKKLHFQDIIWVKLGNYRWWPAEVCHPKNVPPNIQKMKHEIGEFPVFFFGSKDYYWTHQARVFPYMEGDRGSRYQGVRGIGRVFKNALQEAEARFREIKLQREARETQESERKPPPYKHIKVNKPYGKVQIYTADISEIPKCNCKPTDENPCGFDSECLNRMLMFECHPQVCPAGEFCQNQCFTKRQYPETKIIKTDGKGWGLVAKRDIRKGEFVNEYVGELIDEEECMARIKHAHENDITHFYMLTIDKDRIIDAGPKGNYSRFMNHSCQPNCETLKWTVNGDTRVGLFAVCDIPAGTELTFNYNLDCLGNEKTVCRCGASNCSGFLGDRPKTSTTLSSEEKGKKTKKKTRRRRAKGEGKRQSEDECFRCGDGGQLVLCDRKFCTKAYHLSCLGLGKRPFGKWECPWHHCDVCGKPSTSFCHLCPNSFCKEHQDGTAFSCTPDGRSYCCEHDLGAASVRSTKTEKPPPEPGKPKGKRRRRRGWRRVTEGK

[8] = target: T3, Carboxy-terminal domain RNA polymerase II polypeptide A small phosphatase 1 (Homo sapiens, UniProt Q9GZU7); assay: CTDSP1 inhibitors, concentration-response, biochemical, absorbance readout, ultra-high-throughput screen actives (AID 540297); type: functional
T3 sequence (Q9GZU7 whole entry): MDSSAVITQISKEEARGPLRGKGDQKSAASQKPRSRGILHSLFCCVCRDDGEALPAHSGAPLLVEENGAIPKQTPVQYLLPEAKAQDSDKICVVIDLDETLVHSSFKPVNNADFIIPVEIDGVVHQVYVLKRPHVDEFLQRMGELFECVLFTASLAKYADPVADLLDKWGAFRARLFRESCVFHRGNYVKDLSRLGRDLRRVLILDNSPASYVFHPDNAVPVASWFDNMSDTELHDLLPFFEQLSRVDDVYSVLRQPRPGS

[9] = target: T4, Zinc finger protein mex-5 (Caenorhabditis elegans, UniProt Q9XUB2); assay: potency of MEX-5 RNA-binding blockers – biochemical, C. elegans, fluorescence polarization, dose response (AID 1960)
T4 sequence (Q9XUB2 whole entry): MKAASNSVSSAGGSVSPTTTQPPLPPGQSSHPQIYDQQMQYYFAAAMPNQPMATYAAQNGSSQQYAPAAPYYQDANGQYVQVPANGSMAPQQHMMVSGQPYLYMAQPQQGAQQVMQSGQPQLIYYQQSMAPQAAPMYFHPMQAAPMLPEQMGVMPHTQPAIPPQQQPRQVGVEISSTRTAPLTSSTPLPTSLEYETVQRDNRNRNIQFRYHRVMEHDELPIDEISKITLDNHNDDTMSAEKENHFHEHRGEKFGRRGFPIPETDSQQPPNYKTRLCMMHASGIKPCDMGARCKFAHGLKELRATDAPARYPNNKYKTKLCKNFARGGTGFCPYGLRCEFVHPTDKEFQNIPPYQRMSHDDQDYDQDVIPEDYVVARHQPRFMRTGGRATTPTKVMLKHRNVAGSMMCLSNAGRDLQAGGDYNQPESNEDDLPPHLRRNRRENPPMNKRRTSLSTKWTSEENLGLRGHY

[10] = target: T5, Caspase-6 (Homo sapiens, UniProt P55212); assay: inhibition of CASP6 peptide cleavage – biochemical, VEID-R110 fluorescence, cherry-pick, dose response (AID 720632)
T5 sequence (P55212 whole entry): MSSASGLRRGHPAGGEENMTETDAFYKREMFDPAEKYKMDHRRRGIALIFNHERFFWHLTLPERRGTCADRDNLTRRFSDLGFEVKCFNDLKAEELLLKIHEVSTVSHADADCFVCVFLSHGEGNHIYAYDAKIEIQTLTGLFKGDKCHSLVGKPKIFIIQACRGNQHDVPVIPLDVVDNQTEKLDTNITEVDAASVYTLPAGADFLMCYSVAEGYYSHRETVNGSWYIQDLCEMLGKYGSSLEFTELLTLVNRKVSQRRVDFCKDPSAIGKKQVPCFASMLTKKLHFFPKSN

[11] = target: T6, RNA-binding protein pos-1 (Caenorhabditis elegans, UniProt G5EF15); assay: disruptors of C. elegans POS-1 RNA interaction – biochemical, fluorescence polarization, dose response (AID 1964);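 also: purified POS-1 fused to maltose binding protein made in E. coli; potency of compounds blocking POS-1 binding to fluorescent RNA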
T6 sequence (G5EF15 whole entry): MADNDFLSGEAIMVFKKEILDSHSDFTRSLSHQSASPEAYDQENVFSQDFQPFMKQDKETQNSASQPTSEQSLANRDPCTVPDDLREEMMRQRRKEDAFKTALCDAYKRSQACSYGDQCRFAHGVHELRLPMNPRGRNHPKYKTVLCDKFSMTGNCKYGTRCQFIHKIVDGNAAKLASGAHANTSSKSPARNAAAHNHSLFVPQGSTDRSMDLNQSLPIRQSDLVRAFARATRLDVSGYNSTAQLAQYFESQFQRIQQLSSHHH

[12] = target: T7, Caspase-3 (Homo sapiens, UniProt P42574); assay: human caspase-3 protease activity blockade – biochemical, fluorescence, cherry-picked samples, selectivity assay for caspase-6 allosteric inhibitor project, dose response (AID 743291)
T7 sequence (P42574 whole entry): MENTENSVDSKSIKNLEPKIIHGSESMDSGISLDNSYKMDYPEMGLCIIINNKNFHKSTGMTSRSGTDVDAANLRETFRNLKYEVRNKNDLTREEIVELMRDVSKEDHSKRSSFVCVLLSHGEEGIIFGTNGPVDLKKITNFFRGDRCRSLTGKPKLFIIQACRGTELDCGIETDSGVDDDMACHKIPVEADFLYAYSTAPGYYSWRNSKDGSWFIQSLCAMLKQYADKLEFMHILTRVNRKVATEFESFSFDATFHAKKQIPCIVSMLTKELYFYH

[13] = target: Caspase-7 (Homo sapiens, UniProt P55210); assay: caspase-7 enzyme inhibition, selectivity check – biochemical, DEVD-R110 fluorescence, cherry-pick, selectivity assay for caspase-6 inhibitor project, dose response (AID 743295); type: functional
Sequence of Caspase-7 (P55210 24-198 limits assumed): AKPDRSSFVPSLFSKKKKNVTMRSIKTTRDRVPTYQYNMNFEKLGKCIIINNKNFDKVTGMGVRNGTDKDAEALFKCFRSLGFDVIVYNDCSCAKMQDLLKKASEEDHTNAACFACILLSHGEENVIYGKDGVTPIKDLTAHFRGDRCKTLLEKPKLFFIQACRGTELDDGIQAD
Sequence of Caspase-7 (P55210 207-303 limits assumed): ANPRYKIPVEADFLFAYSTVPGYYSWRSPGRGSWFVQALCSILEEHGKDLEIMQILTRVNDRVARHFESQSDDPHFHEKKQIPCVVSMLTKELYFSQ

[14] = A549 cell cytotoxicity, dose response, cytotoxicity control, plate reader, cherry-pick, antagonist series (AID 743412); type: functional, cell-based
[15] = toxicity toward HepG2 liver cells – cell-based, plate reader, cherry-pick, antagonist series, cytotoxicity control, dose response (AID 743416); type: functional
[16] = blockers of bursicon-stimulated LGR2 cAMP reporter – cell-based, HEK293, CRE-luciferase reporter, cherry pick, set 2, dose response (AID 743343); type: functional;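 also: transfected cells were stimulated with diluted bursicon conditioned medium after compound addition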
[17] = test system: HEK293; assay: EBV LMP1 TES2 canonical NF-kB signalling blockers – cell-based, HEK293, luciferase, cherry-pick, dose response (AID 588343); type: functional; conditions: Homo sapiens
[18] = viability loss in HEK293 cells – cell-based, plate reader, cherry-picked samples, cytotoxicity control, dose response (AID 743446); type: functional
[19] = blockade of melanocortin 4 receptor signaling – cell-based, plate reader, cherry pick, counter-screen for LGR2 antagonist project, dose response (AID 743444); type: functional;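 also: transfected HEK 293 cells stimulated with alpha-MSH peptide; potency of inhibitors of the alpha-MSH evoked signal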
[20] = target: Luciferin 4-monooxygenase (Photinus pyralis, UniProt P08659); assay: inhibition of purified Photinus pyralis luciferase – biochemical, luminescence, dose response (AID 1891)
Sequence of Luciferin 4-monooxygenase (P08659 whole entry): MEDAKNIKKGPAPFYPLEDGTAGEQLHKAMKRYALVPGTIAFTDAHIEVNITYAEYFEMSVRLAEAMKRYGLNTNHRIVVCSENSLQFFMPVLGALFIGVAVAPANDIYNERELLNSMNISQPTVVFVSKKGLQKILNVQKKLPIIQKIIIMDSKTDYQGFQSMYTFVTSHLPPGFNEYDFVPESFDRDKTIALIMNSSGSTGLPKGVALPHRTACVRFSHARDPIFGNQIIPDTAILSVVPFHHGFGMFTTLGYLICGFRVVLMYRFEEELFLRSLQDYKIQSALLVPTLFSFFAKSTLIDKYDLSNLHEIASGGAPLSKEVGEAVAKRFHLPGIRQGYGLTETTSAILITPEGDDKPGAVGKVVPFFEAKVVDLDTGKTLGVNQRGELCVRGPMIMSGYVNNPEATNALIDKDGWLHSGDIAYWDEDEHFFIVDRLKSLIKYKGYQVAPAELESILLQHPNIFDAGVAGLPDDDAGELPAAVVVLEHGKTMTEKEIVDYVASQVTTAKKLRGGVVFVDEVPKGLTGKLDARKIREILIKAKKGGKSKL

[21] = Luminescence Cell-Based Dose Confirmation HTS to Identify Inhibitors of Platelet Dense Granule Release. [Related pubchem assays: 1663 (Primary HTS), 1678 (Summary of Project)]; type: functional
[22] = target: T8, SUMO-activating enzyme (Homo sapiens, UniProt Q9UBT2); assay: blockers of SAE1/SAE2–UBC9 SUMO transfer – biochemical, HTRF, uHTS, primary screen (AID 2006); type: protein-complex assay
T8 sequence (Q9UBE0 whole entry): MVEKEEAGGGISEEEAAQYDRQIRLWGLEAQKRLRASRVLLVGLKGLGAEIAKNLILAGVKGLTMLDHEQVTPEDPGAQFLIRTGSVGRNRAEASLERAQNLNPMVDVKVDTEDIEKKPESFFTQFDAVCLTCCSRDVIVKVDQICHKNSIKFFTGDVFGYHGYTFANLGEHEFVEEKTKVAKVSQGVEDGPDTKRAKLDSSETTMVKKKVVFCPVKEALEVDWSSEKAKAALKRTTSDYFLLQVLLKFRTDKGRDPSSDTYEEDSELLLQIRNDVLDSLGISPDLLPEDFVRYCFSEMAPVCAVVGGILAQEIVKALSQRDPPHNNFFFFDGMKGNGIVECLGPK
T8 sequence (Q9UBT2 whole entry): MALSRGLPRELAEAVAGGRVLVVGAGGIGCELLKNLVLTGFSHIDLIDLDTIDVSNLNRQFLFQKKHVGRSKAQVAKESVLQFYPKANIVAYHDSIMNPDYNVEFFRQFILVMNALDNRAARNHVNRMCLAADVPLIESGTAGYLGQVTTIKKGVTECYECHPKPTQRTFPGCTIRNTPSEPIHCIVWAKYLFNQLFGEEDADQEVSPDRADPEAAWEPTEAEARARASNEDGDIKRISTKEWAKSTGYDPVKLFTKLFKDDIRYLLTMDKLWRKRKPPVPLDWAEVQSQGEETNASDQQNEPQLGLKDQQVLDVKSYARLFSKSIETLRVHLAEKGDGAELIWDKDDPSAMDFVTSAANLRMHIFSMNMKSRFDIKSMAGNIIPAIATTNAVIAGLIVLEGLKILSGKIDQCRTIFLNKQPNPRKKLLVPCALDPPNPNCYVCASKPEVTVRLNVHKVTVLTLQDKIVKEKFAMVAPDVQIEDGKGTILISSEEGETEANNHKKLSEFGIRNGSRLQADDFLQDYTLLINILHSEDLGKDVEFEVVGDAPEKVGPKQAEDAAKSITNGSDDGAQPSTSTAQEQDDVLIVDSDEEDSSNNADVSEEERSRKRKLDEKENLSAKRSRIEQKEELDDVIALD

[23] = target: 1-phosphatidylinositol 4,5-bisphosphate phosphodiesterase beta-3 (Homo sapiens, UniProt Q01970); assay: Fluorescence-based biochemical high throughput dose response assay to identify inhibitors of phospholipase C isozymes (PLC-B3).
Sequence of 1-phosphatidylinositol 4,5-bisphosphate phosphodiesterase beta-3 (Q01970 whole entry): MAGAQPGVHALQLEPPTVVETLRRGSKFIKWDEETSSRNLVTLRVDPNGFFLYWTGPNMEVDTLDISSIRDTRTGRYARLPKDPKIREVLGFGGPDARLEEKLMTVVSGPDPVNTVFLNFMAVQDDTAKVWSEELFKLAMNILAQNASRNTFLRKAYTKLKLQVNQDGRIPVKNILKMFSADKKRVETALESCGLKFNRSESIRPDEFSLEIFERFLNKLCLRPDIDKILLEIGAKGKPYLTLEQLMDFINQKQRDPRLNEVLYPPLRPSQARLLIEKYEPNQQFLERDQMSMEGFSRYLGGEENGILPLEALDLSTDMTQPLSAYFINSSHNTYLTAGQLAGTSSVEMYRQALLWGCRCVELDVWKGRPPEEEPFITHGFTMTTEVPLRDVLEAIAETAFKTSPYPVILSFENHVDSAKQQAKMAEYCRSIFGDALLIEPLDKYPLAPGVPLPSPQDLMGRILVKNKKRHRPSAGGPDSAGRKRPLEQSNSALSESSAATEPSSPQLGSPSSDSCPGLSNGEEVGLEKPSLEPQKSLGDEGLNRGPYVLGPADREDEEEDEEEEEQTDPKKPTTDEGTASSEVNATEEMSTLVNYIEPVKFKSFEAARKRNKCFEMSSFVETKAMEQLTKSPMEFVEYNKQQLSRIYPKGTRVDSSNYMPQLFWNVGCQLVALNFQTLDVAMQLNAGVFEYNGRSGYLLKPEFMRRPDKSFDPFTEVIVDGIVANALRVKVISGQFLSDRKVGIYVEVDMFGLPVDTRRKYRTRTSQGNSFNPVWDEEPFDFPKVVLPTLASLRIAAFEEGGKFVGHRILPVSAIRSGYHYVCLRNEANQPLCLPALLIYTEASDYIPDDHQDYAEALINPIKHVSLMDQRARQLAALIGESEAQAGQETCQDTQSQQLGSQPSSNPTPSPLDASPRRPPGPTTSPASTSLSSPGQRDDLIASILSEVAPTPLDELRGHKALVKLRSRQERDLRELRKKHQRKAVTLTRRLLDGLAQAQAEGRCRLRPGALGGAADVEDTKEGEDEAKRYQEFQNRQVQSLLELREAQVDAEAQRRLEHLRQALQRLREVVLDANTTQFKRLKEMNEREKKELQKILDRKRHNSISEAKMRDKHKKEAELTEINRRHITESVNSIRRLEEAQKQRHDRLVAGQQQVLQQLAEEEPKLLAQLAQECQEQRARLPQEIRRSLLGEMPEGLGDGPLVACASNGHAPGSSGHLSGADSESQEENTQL

[24] = target: 1-phosphatidylinositol 4,5-bisphosphate phosphodiesterase gamma-1 (Homo sapiens, UniProt P19174); assay: Counterscreen for inhibitors of phospholipase C isozymes (PLC-B3): Fluorescence-based biochemical high throughput dose response assay to identify inhibitors of phospholipase C isozymes (PLC-gamma1).
Sequence of 1-phosphatidylinositol 4,5-bisphosphate phosphodiesterase gamma-1 (P19174 whole entry): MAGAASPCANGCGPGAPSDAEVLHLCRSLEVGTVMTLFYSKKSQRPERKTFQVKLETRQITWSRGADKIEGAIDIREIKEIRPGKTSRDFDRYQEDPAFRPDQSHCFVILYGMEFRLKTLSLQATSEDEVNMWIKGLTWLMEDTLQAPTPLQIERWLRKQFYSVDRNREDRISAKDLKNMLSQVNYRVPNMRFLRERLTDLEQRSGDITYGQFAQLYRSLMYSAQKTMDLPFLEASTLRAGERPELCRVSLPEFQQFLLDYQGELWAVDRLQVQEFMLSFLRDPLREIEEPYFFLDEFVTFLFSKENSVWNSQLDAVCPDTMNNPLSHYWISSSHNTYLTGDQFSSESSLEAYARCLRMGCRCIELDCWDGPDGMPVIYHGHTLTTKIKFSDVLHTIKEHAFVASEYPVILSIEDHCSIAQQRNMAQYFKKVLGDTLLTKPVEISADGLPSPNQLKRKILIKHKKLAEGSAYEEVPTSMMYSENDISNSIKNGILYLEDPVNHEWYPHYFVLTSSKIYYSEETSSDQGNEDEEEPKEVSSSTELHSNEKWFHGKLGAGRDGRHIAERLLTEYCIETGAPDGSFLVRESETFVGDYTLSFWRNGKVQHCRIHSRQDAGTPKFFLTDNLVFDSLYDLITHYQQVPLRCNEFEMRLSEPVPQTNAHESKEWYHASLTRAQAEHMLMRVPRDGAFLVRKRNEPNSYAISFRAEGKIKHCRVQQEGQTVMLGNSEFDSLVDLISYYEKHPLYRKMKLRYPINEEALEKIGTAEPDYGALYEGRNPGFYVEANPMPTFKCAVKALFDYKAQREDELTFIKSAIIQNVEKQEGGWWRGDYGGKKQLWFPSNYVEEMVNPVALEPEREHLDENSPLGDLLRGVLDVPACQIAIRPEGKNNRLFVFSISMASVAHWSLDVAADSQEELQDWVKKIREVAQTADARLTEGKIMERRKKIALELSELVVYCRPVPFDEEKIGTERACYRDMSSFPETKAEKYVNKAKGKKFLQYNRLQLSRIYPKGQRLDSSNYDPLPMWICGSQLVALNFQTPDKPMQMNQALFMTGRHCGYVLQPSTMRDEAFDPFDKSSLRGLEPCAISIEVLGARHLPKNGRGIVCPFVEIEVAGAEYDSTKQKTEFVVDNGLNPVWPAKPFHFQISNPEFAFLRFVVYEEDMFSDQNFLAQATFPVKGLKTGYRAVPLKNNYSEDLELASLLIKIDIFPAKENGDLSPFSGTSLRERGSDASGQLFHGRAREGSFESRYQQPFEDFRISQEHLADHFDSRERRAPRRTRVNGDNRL

[25] = target: Heat shock protein HSP 90-alpha (Homo sapiens, UniProt P07900); type: functional, organism-based
[26] = target: T8, SUMO-activating enzyme; assay: blockers of UBC9-mediated SUMO conjugation – biochemical, AlphaScreen, SUMOylation inhibitor project, confirmation (AID 2018); type: functional
[27] = target: T9, Oxysterols receptor LXR-beta (Homo sapiens, UniProt P55055); type: functional, cell-based;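 also: agonist activity at LXR measured by a cell-based luminescence readout across a dose range, run as a counterscreen for daf-12 agonists; HEK293 cells with Gal4-LXR fusion and GAL4-driven luciferase reporter; potency for activation of Gal4-LXR reporter so compounds are agonists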
T9 sequence (P55055 whole entry): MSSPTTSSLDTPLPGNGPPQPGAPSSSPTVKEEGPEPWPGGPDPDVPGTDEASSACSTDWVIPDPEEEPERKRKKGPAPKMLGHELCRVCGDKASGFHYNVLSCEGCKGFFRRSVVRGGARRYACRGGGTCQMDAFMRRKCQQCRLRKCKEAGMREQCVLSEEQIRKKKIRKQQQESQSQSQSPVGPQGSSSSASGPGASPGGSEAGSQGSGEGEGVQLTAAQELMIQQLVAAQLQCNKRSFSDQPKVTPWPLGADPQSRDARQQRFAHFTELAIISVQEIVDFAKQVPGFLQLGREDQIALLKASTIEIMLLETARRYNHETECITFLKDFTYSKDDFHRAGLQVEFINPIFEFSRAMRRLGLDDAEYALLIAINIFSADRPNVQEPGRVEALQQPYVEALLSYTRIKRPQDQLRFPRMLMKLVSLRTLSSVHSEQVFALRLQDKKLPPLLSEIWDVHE

Cc1nn(-c2ccccc2)c(C)c1/C=N/Nc1nc2ccccc2[nH]1
EC50 [1]: > 150 µM (not active)
EC50 [2]: > 60 µM (not active)
EC50 [3]: 2.15 µM (active)
EC50 [4]: > 150 µM (not active)
AC50 [5]: 26 µM (active)
EC50 [6]: 7.89 µM (active)

Cc1cc(C=O)c(C)n1-c1ccc(Cl)c(C(=O)O)c1
AC50 [7]: 10.6 µM (active)
IC50 [8]: 4.61 µM (active)
EC50 [9]: > 300 µM (not active)
AC50 [10]: 1.47 µM (active)
EC50 [11]: > 300 µM (not active)
AC50 [12]: 43.1 µM (active)
AC50 [13]: > 70 µM (inactive)

O=C(Nc1ccc2c(c1)OCCO2)c1ccccn1
AC50 [14]: 19.9 µM (active)
AC50 [15]: 48.5 µM (active)
AC50 [16]: 3.29 µM (active)
AC50 [17]: 2.3 µM (active)
AC50 [18]: 27.3 µM (active)
AC50 [19]: 2.75 µM (active)

Nc1ncnc2c1ncn2[C@@H]1O[C@H](COP(=O)(O)O)[C@@H](O)[C@@H]1O
EC50 [20]: 1.08 µM (active)
EC50 [21]: 0.946 µM (active)
IC50 [22]: 16.6 µM (active)
IC50 [23]: > 122 µM (inactive)
IC50 [24]: 8.71 µM (active)
AC50 [25]: 1.92 µM (active)
IC50 [26]: 7.95 µM (active)

Cc1ccc2nc(C)/c(=N\O)c(C)nc2c1
EC50 [27]: > 67.6 µM (inactive)
